Experimental findings from patent US12227520B2 (priority 2019, dated 2025) are described below.

Series [1] deals with HIV-1 (IIIB). The experiment in a line: Antiviral assay in MT-4 cells (HIV MT-4 antiviral assay). It is filed as cell-based. The note with it: Human immunodeficiency virus 1, IIIB, MT4, 120 h, HIV-1 (IIIB) in MT-4 cells, 5 days incubation; read-out: EC50. The essentials: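 Read-out is CellTiter-Glo chemiluminescence after 5-day culture at 37° C, giving protection of MT-4 cells from HIV-1 IIIB cytopathicity. Compounds tested in 1:3 dilution series in complete RPMI; controls were no drug, mock infection and 5 μM AZT.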

Series [2] has as its system pLai RLuc reporter virus. Nature of the series: microbe, parasite or virus in culture. It is filed as cell-based, HIV. The essentials: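 Read-out is Renilla luciferase after 72 h at 37 °C in MT-4 cells infected 2 h beforehand with pLai RLuc reporter virus; compounds diluted 1:3.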
Series [3] in a line: Cytotoxicity assay in MT-4 cells. The series is classed as cell-based, human. Particulars: human, uninfected MT-4 cells, 5 days incubation; read-out: CC50. The essentials: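 For cytotoxicity, uninfected MT-4 cells were incubated with compounds 5 days at 37 °C, with 10 μM puromycin marking base cytotoxicity. Parallel plates used HIV-1 IIIB-infected (1:250 stock dilution) or mock cells with 5 μM AZT and no-drug controls. Read-out: CellTiter-Glo chemiluminescence.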

[4] abbreviates: Human immunodeficiency virus 1, 72 h, read-out: Antiviral Serum Shift RLuc 50% HS, HS/CCM (RPMI media, 10% FBS, 50% HS, 1% P/S), 72-h incubation.
Where [5] appears, read: Human immunodeficiency virus 1, 72 h, read-out: Antiviral Serum Shift RLuc CCM, CCM (RPMI media, 10% FBS, 1% P/S), 72-h incubation.

Molecules are shown by their SMILES. Read-outs that look alike come from different tables or passages of the source.

As to `C[C@H]1[C@H]2CCCCN1C(=O)c1c(O)c(=O)c(C(=O)NCc3ccc(F)cc3F)cn12` [Example 9, (7R,13S)—N-(2,4-difluorobenzyl)-12-hydroxy-13-methyl-1,11-dioxo-1,4,5,6,7,11-hexahydro-3H-2,7-methanopyrido[1,2-a][1,4]diazonine-10-carboxamide], the EC50 came out at 1.8 nM in series [1], 1.68 nM in series [2] (setting [4]) and 0.33 nM in series [2] (setting [5]). Besides, the CC50 at 5 days in series [3] worked out at 6610 nM.
Consider `C[C@]1(O)CCCN2C[C@H]1n1cc(C(=O)NCc3ccc(F)cc3F)c(=O)c(O)c1C2=O` [Example 14-1, (6S,7R)—N-(2,4-difluorobenzyl)-6,12-dihydroxy-6-methyl-1,11-dioxo-1,4,5,6,7,11-hexahydro-3H-2,7-methanopyrido[1,2-a][1,4]diazonine-10-carboxamide], for which the EC50 in series [1] stood at 3 nM; in series [2] (setting [4]), 1.88 nM; in series [2] (setting [5]), 0.79 nM. The CC50 at 5 days in series [3] stood at 22200 nM.
In the same order, the values of `C[C@@]1(O)CCCN2C[C@@H]1n1cc(C(=O)NCc3ccc(F)cc3F)c(=O)c(O)c1C2=O` [Example 14-2, (6R,7S)—N-(2,4-difluorobenzyl)-6,12-dihydroxy-6-methyl-1,11-dioxo-1,4,5,6,7,11-hexahydro-3H-2,7-methanopyrido[1,2-a][1,4]diazonine-10-carboxamide] are 2.7 nM, 0.414 nM, 0.567 nM and 19900 nM.
In the case of `O=C(NCc1c(F)cc(F)cc1F)c1cn2c(c(O)c1=O)C(=O)N1CCC[C@@H](F)[C@@H]2C1` [Example 15-1, (6R,7S)-6-fluoro-12-hydroxy-1,11-dioxo-N-(2,4,6-trifluorobenzyl)-1,4,5,6,7,11-hexahydro-3H-2,7-methanopyrido[1,2-a][1,4]diazonine-10-carboxamide], the EC50 in series [1] came out at 1.7 nM; in series [2] (setting [4]) it was 11.6 nM; in series [2] (setting [5]), 0.32 nM. In addition, in series [3], the CC50 at 5 days was found to be 18300 nM.
In the same order, the values of `O=C(NCc1c(F)cc(F)cc1F)c1cn2c(c(O)c1=O)C(=O)N1CCC[C@H](F)[C@H]2C1` [Example 15-2, (6S, 7R)-6-fluoro-12-hydroxy-1,11-dioxo-N-(2,4,6-trifluorobenzyl)-1,4,5,6,7,11-hexahydro-3H-2,7-methanopyrido[1,2-a][1,4]diazonine-10-carboxamide] are 1.4 nM, 4.32 nM, 0.29 nM and 15300 nM.
For `O=C(NCc1ccc(F)cc1F)c1cn2c(c(O)c1=O)C(=O)N1CCCC(F)(F)[C@@H]2C1` [Example 16-1, (7S)-N-(2,4-difluorobenzyl)-6,6-difluoro-12-hydroxy-1,11-dioxo-1,4,5,6,7,11-hexahydro-3H-2,7-methanopyrido[1,2-a][1,4]diazonine-10-carboxamide], the EC50 in series [1] was determined as 2.1 nM; in series [2] (setting [4]), 3.22 nM; in series [2] (setting [5]), 0.25 nM. Moreover, the CC50 at 5 days in series [3] came out at 14400 nM.
For `O=C(NCc1ccc(F)cc1F)c1cn2c(c(O)c1=O)C(=O)N1CCCC(F)(F)[C@H]2C1` [Example 16-2, (7R)—N-(2,4-difluorobenzyl)-6,6-difluoro-12-hydroxy-1,11-dioxo-1,4,5,6,7,11-hexahydro-3H-2,7-methanopyrido[1,2-a][1,4]diazonine-10-carboxamide], the results for the EC50 in series [1], in series [2] (setting [4]) and in series [2] (setting [5]) were 5.3 nM, 82.5 nM and 0.85 nM, respectively. Further, the CC50 at 5 days in series [3] was 36200 nM.
Take `CC1CCCN2CC1n1cc(C(=O)NCc3ccc(F)cc3F)c(=O)c(O)c1C2=O` (stereo not drawn) [Example 17-1b, N-(2,4-difluorobenzyl)-12-hydroxy-6-methyl-1,11-dioxo-1,4,5,6,7,11-hexahydro-3H-2,7-methanopyrido[1,2-a][1,4]diazonine-10-carboxamide]: the EC50 in series [1] came out at 1.2 nM; in series [2] (setting [5]), 0.26 nM; in series [2] (read-out: Antiviral Serum Shift RLuc 50% HS, HS/CCM (RPMI media, 10% FBS, 50% HS, 1% P/S), 72-h incubation) it was 3.1 nM. For the same compound, the cytotoxic concentration (CC50) at 5 days in series [3] stood at 10900 nM.
With `O=C(NCc1c(F)cc(F)cc1F)c1cn2c(c(O)c1=O)C(=O)N1CCOC[C@@H]2C1` [Example 19, (7S)-12-hydroxy-1,11-dioxo-N-(2,4,6-trifluorobenzyl)-1,3,4,6,7,11-hexahydro-2,7-methanopyrido[1,2-d][1,4,7]oxadiazonine-10-carboxamide], the EC50 in series [1] was found to be 4 nM; in series [2] (setting [4]) it was 4.35 nM; in series [2] (setting [5]), 1.21 nM. The CC50 at 5 days in series [3] was over 50000 nM.
The matching figures for `O=C(NCc1c(F)cc(F)cc1F)c1cn2c(c(O)c1=O)C(=O)N1CCOC[C@H]2C1` [Example 20, (7R)-12-Hydroxy-1,11-dioxo-N-(2,4,6-trifluorobenzyl)-1,3,4,6,7,11-hexahydro-2,7-methanopyrido[1,2-d][1,4,7]oxadiazonine-10-carboxamide]: 5.6 nM, 33.4 nM, 1.83 nM and 37200 nM.
With `O=C(NCc1c(F)cc(F)cc1F)c1cn2c(c(O)c1=O)C(=O)N1CCCC[C@@H]2C1` [Example 26-1, (7R)-12-hydroxy-1,11-dioxo-N-(2,4,6-trifluorobenzyl)-1,4,5,6,7,11-hexahydro-3H-2,7-methanopyrido[1,2-a][1,4]diazonine-10-carboxamide], the EC50 in series [1] is 1.4 nM; in series [2] (setting [4]) it was 33.4 nM; in series [2] (setting [5]) it was 0.354 nM. Besides, the CC50 at 5 days in series [3] came to 15900 nM.
The matching figures for `O=C(NCc1c(F)cc(F)cc1F)c1cn2c(c(O)c1=O)C(=O)N1CCCC[C@H]2C1` [Example 26-2, (7S)-12-hydroxy-1,11-dioxo-N-(2,4,6-trifluorobenzyl)-1,4,5,6,7,11-hexahydro-3H-2,7-methanopyrido[1,2-a][1,4]diazonine-10-carboxamide]: 1.31 nM, 2.29 nM, 0.353 nM and 14400 nM.
The matching figures for `CC(C)N1CCN2CC(C1)n1cc(C(=O)NCc3ccc(F)cc3F)c(=O)c(O)c1C2=O` (stereo not drawn) [Example 34, N-(2,4-difluorobenzyl)-12-hydroxy-5-isopropyl-1,11-dioxo-1,4,5,6,7,11-hexahydro-3H-2,7-methanopyrido[1,2-a][1,4,7]triazonine-10-carboxamide]: 3.3 nM, 9.56 nM, 2.06 nM and 16400 nM.
The matching figures for `O=C(NCc1ccc(F)c(Cl)c1F)c1cn2c(c(O)c1=O)C(=O)N1CCCC[C@@H]2C1` [Example 35, (7R)—N-(3-chloro-2,4-difluorobenzyl)-12-hydroxy-1,11-dioxo-1,4,5,6,7,11-hexahydro-3H-2,7-methanopyrido[1,2-a][1,4]diazonine-10-carboxamide]: 1.5 nM, 44.4 nM, 0.423 nM and 4960 nM.
Take `O=C(NCc1ccc(F)cc1F)c1cn2c(c(O)c1=O)C(=O)N1CC2CCc2ccccc21` (stereo not drawn) [Example 36, N-(2,4-difluorobenzyl)-7-hydroxy-6,8-dioxo-6,8,13,14-tetrahydro-12H-5,12-methanobenzo[e]pyrido[1,2-a][1,4]diazonine-9-carboxamide]: the EC50 in series [1] was found to be 2 nM; in series [2] (setting [4]), 7.16 nM; in series [2] (setting [5]), 0.917 nM. For the same compound, the CC50 at 5 days in series [3] came to 17700 nM.
For the compound `O=C(NCc1c(F)cc(F)cc1F)c1cn2c(c(O)c1=O)C(=O)N1C[C@H]3CC[C@H](C3)[C@H]2C1` [Example 41-1, (4S,7R,8S)-13-hydroxy-1,12-dioxo-N-(2,4,6-trifluorobenzyl)-1,3,4,5,6,7,8,12-octahydro-2,8:4,7-dimethanopyrido[1,2-a][1,4]diazecine-11-carboxamide], the results for the EC50 in series [1], in series [2] (setting [4]) and in series [2] (setting [5]) were 1.6 nM, 6.64 nM and 0.335 nM, respectively. Besides, in series [3], the CC50 at 5 days was found to be 15600 nM.
The matching figures for `O=C(NCc1c(F)cc(F)cc1F)c1cn2c(c(O)c1=O)C(=O)N1C[C@@H]3CC[C@@H](C3)[C@@H]2C1` [Example 41-2, (4R,7S,8R)-13-hydroxy-1,12-dioxo-N-(2,4,6-trifluorobenzyl)-1,3,4,5,6,7,8,12-octahydro-2,8:4,7-dimethanopyrido[1,2-a][1,4]diazecine-11-carboxamide]: 1.4 nM, 0.968 nM, 0.26 nM and 14300 nM.
Consider `O=C(NCc1c(F)cc(F)cc1F)c1cn2c(c(O)c1=O)C(=O)N1C[C@@H]2CCc2c(F)cccc21` [Example 43-1, (12S)-1-fluoro-7-hydroxy-6,8-dioxo-N-(2,4,6-trifluorobenzyl)-6,8,13,14-tetrahydro-12H-5,12-methanobenzo[e]pyrido[1,2-a][1,4]diazonine-9-carboxamide], for which the EC50 in series [1] turned out to be 41.5 nM; in series [2] (setting [4]) it was 147 nM; in series [2] (setting [5]) it was 4.35 nM. In addition, the CC50 at 5 days in series [3] came out at 8100 nM.

Usually CC50 stands for the concentration at which the toxic effect on the cells reaches its halfway point.
